Source: patent CN115504972A, “异恶唑类衍生物、其制备方法及其作为药物的用途” (Guangdong Pharmaceutical University, priority 2021, dated 2022)

Columns and labels:
[1] = test system: non-alcoholic fatty liver model mice (非酒精性脂肪肝模型小鼠); assay: Improvement of non-alcoholic fatty liver in NASH model mice (Western diet + CCl4), HE staining of liver; format: in vivo, C57BL/6 mouse; settings: 10 mg/kg, gavage, once daily, 4 weeks; compared with obeticholic acid 20 mg/kg
[2] = phase III clinical study; cited from earlier work
[3] = test system: non-alcoholic hepatitis (非酒精性肝炎(NASH)); settings: phase IIb study, 72 weeks of treatment; cited from earlier work
[4] = clinical studies; cited from earlier work
[5] = test system: non-alcoholic fatty liver disease (非酒精性脂肪性肝病(NAFLD)); settings: phase IIa clinical study; cited from earlier work
[6] = target: T1, FXR receptor (FXR受体) (Homo sapiens, UniProt Q96RI1); settings: cited from earlier work
T1 sequence (Q96RI1 1-486): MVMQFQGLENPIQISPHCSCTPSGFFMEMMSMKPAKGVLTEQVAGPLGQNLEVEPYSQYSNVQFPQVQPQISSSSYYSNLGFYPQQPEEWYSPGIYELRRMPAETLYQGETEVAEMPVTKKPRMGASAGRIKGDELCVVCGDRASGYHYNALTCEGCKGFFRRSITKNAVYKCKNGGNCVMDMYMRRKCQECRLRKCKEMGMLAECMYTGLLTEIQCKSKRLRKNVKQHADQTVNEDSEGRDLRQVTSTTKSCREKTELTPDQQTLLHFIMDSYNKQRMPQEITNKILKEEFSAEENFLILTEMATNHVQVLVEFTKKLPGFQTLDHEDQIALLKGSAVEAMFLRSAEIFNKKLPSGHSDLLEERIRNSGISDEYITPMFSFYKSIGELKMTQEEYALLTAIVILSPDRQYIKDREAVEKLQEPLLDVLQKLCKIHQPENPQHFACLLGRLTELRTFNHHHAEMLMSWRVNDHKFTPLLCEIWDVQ

SMILES	ballooning [1]	degree of hepatic steatosis [1]	improvement of non-alcoholic fatty liver [1]	inflammatory infiltration [1]	liver fibrosis, histological features of steatohepatitis and liver biochemical indicators [2]	histopathology of NASH [3]	side effects [4]	insulin sensitivity [5]	other metabolic effects [5]	FXR receptor agonist activity compared with the endogenous ligand CDCA [6]
CC(C)c1onc(-c2ccccc2OC(F)(F)F)c1CN1CCC(COc2ccc(C(=O)O)cc2)CC1 [I-9, 4-(1-(5-异丙基-3-(2-三氟甲氧基苯基)异恶唑-4-甲基)哌啶-4-甲氧基)苯甲酸]	得到更明显的改善	得到更明显的改善	明显优于奥贝胆酸	得到更明显的改善						
CC[C@H]1[C@@H](O)[C@@H]2[C@H](CC[C@]3(C)[C@@H]([C@H](C)CCC(=O)O)CC[C@@H]23)[C@@]2(C)CC[C@@H](O)C[C@@H]12 [奥贝胆酸]					可以改善肝纤维化、脂肪性肝炎的组织学特征以及肝脏的生化指标	对非酒精性肝炎(NASH)的组织病理学的改进也有益	严重的瘙痒、肝毒性、心血管风险等副作用	有显著改善	有益作用	比内源性配体CDCA活性更高
